Four compounds from PMC6752049 (Insect biochemistry and molecular biology, 2019) can be followed below.

What all share (test): two-electrode voltage clamp, Xenopus oocytes
Type in all cases: cell-based
For orientation: In two-electrode clamp one electrode senses voltage and the other passes current.

One assay deals with T1, AgamOR8 (Anopheles gambiae, UniProt Q7PUT5).
T1 sequence (Q7PUT5 1-399): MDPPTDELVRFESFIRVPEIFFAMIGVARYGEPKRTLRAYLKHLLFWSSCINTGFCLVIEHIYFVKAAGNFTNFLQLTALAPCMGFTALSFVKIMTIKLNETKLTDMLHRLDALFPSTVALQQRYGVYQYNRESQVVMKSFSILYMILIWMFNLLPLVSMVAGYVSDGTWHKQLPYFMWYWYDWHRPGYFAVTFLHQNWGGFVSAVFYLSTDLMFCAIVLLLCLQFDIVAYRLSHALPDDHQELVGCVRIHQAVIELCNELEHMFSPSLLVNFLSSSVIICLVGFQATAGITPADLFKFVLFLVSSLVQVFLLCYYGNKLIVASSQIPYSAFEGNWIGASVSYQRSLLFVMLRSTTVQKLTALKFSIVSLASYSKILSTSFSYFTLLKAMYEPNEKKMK
T1 sequence (Q7QCC7 1-478 partner): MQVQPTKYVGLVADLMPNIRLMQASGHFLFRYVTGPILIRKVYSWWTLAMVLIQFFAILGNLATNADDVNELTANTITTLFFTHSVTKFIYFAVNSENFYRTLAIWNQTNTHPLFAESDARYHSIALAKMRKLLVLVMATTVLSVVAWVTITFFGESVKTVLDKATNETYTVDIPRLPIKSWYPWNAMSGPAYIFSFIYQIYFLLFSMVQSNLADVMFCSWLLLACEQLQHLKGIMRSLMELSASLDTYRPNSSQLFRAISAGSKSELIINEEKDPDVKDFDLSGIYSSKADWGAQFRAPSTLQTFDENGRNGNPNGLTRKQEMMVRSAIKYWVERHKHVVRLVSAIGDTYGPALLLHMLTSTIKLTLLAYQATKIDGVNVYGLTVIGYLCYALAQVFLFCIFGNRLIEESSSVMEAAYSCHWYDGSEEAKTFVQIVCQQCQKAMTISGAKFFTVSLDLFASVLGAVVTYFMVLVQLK
The following applies: 0.1 uM to 0.1 mM; -80 mV, pH 7.4; inward current (agonist).

Another assay addresses T2, AgamOR10/AgamOrco (Anopheles gambiae, UniProt B5U0U7).
T2 sequence (B5U0U7 1-375): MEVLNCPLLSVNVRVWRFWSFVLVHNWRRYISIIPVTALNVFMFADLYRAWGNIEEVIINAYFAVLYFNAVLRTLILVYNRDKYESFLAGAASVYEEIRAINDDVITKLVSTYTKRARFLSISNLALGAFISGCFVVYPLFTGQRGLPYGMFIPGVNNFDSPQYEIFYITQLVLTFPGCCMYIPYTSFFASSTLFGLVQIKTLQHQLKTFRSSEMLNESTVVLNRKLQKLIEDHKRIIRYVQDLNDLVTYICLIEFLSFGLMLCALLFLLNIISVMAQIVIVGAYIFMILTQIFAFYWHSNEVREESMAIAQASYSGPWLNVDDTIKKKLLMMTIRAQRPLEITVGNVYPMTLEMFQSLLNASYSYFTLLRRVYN
T2 sequence (Q7QCC7 1-478 partner): T1 sequence (Q7QCC7 1-478 partner)
To be noted: 0.01-1 mM; -80 mV, pH 7.4; outward (inhibitory) current.

A further assay addresses T3, AgamOR40 (Anopheles gambiae, UniProt Q7PR01).
T3 sequence (Q7PR01 1-454): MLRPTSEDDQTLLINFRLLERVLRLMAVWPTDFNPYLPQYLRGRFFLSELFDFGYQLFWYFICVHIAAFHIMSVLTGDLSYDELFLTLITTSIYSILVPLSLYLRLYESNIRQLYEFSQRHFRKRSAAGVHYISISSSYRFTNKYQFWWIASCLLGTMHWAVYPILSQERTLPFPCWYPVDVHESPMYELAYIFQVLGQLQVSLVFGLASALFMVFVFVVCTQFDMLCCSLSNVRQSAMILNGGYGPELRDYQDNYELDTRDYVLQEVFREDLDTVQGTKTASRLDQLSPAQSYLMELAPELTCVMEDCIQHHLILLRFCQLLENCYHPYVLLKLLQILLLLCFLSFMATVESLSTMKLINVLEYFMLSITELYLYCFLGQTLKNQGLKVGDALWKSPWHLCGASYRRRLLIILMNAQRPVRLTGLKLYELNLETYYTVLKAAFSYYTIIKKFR
T3 sequence (Q7QCC7 1-478 partner): T1 sequence (Q7QCC7 1-478 partner)
To be noted: 0.01-1 mM; -80 mV, pH 7.4; inward current (agonist).

For `C=CC(O)CCCCC` (stereo not shown) [1-octen-3-ol], the “two-electrode voltage clamp, Xenopus oocytes” value (from here on “two-electrode voltage clamp”) on AgamOR8 was “generated robust, dose-dependent inward currents in response to 1-octen-3-ol”.

Consider `CC/C=C\C[C@H]1C(=O)CC[C@@H]1CC(=O)OC` [BDR-4, methyl jasmonate], for which the “two-electrode voltage clamp” value on AgamOR10/AgamOrco is “The strongest outward currents were obtained with BDR-4 (methyl jasmonate)”.

`CCN(CC)C(=O)c1cccc(C)c1` [DEET]: the “two-electrode voltage clamp” value on AgamOR40 was “generated dose-dependent inward currents in response to DEET as well as to its best ligand, fenchone”.

As for `CC12CCC(C1)C(C)(C)C2=O` (stereo not shown) [fenchone], the “two-electrode voltage clamp” value at AgamOR40 was “generated dose-dependent inward currents in response to DEET as well as to its best ligand, fenchone”.
